This note sets out measurements from article PMC6775132, “Systematic identification of metabolites controlling gene expression in E. coli” (Nature Communications, 2019).

Assay in all cases: microscale thermophoresis, labelled His-tagged protein
Holding throughout (type): binding
Common to all, as to conditions: 50 mM NaH2PO4, 500 mM NaCl, pH 5.7, 21 °C; 50 nM protein
On the technique in general: Microscale thermophoresis detects binding through changes in fluorescence in a small temperature gradient.

Assay [1] addresses T1, ArgR (Escherichia coli, UniProt P0A6D0).
T1 construct: labelled through His-tag (RED-tris-NTA)
T1 sequence (P0A6D0 1-156): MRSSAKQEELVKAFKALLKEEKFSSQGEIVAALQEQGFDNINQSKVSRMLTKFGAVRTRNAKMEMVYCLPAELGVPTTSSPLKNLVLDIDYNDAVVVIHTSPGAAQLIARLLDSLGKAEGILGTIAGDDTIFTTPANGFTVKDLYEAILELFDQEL

In assay [2] the target is T2, TrpR (Escherichia coli, UniProt P0A881).
T2 construct: labelled through His-tag (RED-tris-NTA)

Assay [3] has as its target T3, SoxR (Escherichia coli, UniProt P0ACS2).
T3 construct: labelled through His-tag (RED-tris-NTA)
T3 sequence (P0ACS2 1-154): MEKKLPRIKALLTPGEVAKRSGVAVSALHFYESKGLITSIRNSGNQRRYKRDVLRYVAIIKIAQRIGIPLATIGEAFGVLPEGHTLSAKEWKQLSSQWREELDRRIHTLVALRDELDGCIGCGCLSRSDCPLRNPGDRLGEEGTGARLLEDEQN

Assay [4] has as its target T4, DhaR (Escherichia coli, UniProt P76016).
T4 construct: labelled through His-tag (RED-tris-NTA)
T4 sequence (P76016 1-639): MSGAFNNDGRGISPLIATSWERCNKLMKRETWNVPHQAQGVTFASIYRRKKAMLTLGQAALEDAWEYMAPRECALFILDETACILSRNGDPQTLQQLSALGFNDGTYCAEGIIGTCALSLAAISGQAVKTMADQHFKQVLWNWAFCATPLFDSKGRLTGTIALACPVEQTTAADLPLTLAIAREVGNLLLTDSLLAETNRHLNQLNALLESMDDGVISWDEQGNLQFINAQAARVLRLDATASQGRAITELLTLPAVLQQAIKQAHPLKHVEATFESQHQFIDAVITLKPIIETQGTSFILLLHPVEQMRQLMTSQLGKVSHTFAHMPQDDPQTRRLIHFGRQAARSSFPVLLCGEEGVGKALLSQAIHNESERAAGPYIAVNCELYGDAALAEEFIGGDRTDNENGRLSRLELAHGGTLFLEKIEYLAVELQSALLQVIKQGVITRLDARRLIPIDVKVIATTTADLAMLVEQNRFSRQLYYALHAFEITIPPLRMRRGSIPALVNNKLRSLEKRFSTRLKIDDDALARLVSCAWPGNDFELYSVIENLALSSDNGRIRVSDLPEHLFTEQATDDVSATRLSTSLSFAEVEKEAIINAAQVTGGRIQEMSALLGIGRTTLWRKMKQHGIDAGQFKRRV

In assay [5] the target is T5, SgrR (Escherichia coli, UniProt P33595).
T5 construct: labelled through His-tag (RED-tris-NTA)
T5 sequence (P33595 1-551): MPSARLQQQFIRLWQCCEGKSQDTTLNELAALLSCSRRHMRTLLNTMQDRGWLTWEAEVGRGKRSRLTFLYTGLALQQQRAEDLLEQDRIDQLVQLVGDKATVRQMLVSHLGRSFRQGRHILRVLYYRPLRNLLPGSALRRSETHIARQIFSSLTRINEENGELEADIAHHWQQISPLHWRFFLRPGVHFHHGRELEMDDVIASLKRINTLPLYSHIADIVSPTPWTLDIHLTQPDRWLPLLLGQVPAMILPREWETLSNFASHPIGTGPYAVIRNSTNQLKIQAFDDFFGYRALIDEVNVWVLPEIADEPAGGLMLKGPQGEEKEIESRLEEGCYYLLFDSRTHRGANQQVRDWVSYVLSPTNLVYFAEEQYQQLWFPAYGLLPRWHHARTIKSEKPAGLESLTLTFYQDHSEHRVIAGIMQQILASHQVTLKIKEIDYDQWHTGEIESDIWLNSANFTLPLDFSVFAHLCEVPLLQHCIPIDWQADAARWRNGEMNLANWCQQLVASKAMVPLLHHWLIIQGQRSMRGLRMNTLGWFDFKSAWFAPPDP

`N=C(N)NCCC[C@H](N)C(=O)O` [arg, arginine]: the KD result in assay [1] is “also confirmed the known arginine–ArgR and tryptophan–TrpR interactions”.

With `N[C@@H](Cc1c[nH]c2ccccc12)C(=O)O` [trp, tryptophan], the KD result was “also confirmed the known arginine–ArgR and tryptophan–TrpR interactions” in assay [2]; “In vitro MST assays validated that SoxR binds tryptophan” in assay [3].

Turning to `O=C(CO)COP(=O)(O)O` [dhap, dihydroxyacetone phosphate], the KD result in assay [4] was “DhaR binds the glycolysis intermediate dihydroxyacetone phosphate (DHAP)”.

With `N[C@@H](CCC(=O)O)C(=O)O` [glu, glutamate], in assay [5], the KD entry was “SgrR binds glutamate”.
